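48-hour exposure; five concentrations; linearly interpolated endpoints. At the GI50, growth is halved.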 Active and inactive are the calls of the source. No stated cut-off is given here; in the data, active = GI50 up to about 1.1 µM and inactive = higher.
Assays:
Test in all cases: growth of human tumour cells (NCI), 48 h
[1] = tested on: A498
[2] = tested on: Malme-3M
[3] = tested on: SK-MEL-28
[4] = tested on: HL-60
[5] = tested on: NCI/ADR-RES
[6] = tested on: SF-268
[7] = tested on: HOP-92
[8] = tested on: SW-620
[9] = tested on: TK-10
[10] = tested on: COLO 205
[11] = tested on: HCT-116
[12] = tested on: SNB-19
[13] = tested on: NCI-H522
[14] = tested on: HOP-62
[15] = tested on: OVCAR-3
[16] = tested on: 786-0
[17] = tested on: MDA-MB-231
[18] = tested on: T47D
[19] = tested on: CCRF-CEM

Measured: GI50

NS(=O)(=O)c1nnc(NS(=O)(=O)C(F)(F)F)s1
inactive: [1] > 100 µM | [2] > 100 µM | [3] > 100 µM | [4] > 100 µM | [5] > 100 µM | [6] > 100 µM | [7] > 100 µM | [8] > 100 µM | [9] > 100 µM | [10] > 100 µM | [11] > 100 µM | [12] > 100 µM | [13] > 100 µM | [14] > 100 µM | [15] > 100 µM | [16] > 100 µM | [17] > 100 µM

COc1ccc2c(c1O)C13CCN(C)C(C2)C1CCC1(C3)OCCO1 (stereo not given)
inactive: [18] > 100 µM | [2] > 100 µM | [3] > 100 µM | [5] > 100 µM | [6] > 100 µM | [7] > 100 µM | [8] > 100 µM | [9] > 100 µM | [10] > 100 µM | [11] > 100 µM | [12] > 100 µM | [13] > 100 µM | [14] > 100 µM | [15] > 100 µM | [16] > 100 µM | [17] > 100 µM

CC1(C)OCC2OC3([C@H](O)CCO)OC(C)(C)OC3C2O1 (stereo not given in full)
inactive: [1] > 100 µM | [18] > 100 µM | [3] > 100 µM | [5] > 100 µM | [19] > 100 µM | [7] > 100 µM | [8] > 100 µM | [10] > 100 µM | [11] > 100 µM | [12] > 100 µM | [14] > 100 µM | [15] > 100 µM | [16] > 100 µM | [17] > 100 µM

CC12CC(C/C1=N/O)C(C)(C)C2 (stereo not given)
inactive: [1] > 100 µM | [18] > 100 µM | [2] > 100 µM | [3] > 100 µM | [4] > 100 µM | [19] > 100 µM | [6] > 100 µM | [7] > 100 µM | [8] > 100 µM | [9] > 100 µM | [10] > 100 µM | [11] > 100 µM | [12] > 100 µM | [13] > 100 µM | [14] > 100 µM | [15] > 100 µM | [16] > 100 µM | [17] > 100 µM

CC(NC(=O)C(N)CC(=O)O)NC(=O)N(C)C(C)(C)C (stereo not given)
inactive: [18] > 100 µM | [2] > 100 µM | [3] > 100 µM | [4] > 100 µM | [5] > 100 µM | [19] > 100 µM | [6] > 100 µM | [8] > 100 µM | [9] > 100 µM | [10] > 100 µM | [11] > 100 µM | [12] > 100 µM | [13] > 100 µM | [14] > 100 µM | [15] > 100 µM | [16] > 100 µM | [17] > 100 µM

O=C(CN1CCOCC1)c1ccc2[nH]c(=O)oc2c1
inactive: [1] > 100 µM | [2] > 100 µM | [3] > 100 µM | [4] > 100 µM | [5] > 100 µM | [19] > 100 µM | [6] > 100 µM | [8] > 100 µM | [9] > 100 µM | [10] > 100 µM | [11] > 100 µM | [12] > 100 µM | [14] > 100 µM | [15] > 100 µM | [16] > 100 µM | [17] > 100 µM

Cc1nn(CNc2ccc(F)c(Cl)c2)c(=S)n1/N=C/c1ccc(-c2ccc(Cl)cc2Cl)o1
inactive: [1] 15.1 µM | [18] 18.5 µM | [3] 19.7 µM | [4] 1.44 µM | [5] 19.3 µM | [19] 4.16 µM | [6] 16.3 µM | [8] 15.6 µM | [9] 15.3 µM | [11] 15.7 µM | [13] 14.4 µM | [14] 14.1 µM | [15] 17.3 µM | [16] 15.3 µM | [17] 17.8 µM

Cc1n[nH]c(=O)n1N1C(=O)CCCC1=O
inactive: [1] > 100 µM | [18] > 100 µM | [2] > 100 µM | [5] > 100 µM | [19] > 100 µM | [6] > 100 µM | [9] > 100 µM | [10] > 100 µM | [11] > 100 µM | [13] > 100 µM | [14] > 100 µM | [15] > 100 µM | [16] > 100 µM | [17] > 100 µM

COc1cc(/C=C2\CCC(C)c3c2nc(N)c(C#N)c3-c2cc(OC)c(OC)c(OC)c2)cc(OC)c1OC (stereo not given)
inactive: [1] > 100 µM | [3] > 100 µM | [4] 49.1 µM | [19] 23.7 µM | [6] 25.7 µM | [7] 67.5 µM | [8] 81.8 µM | [9] 75.3 µM | [11] > 100 µM | [12] 54 µM | [14] > 100 µM | [16] 37.4 µM | [17] 37.2 µM

O=[N+]([O-])c1ccc(N/N=C2\C=CCCC2)c([N+](=O)[O-])c1
inactive: [18] > 100 µM | [2] > 100 µM | [3] > 100 µM | [4] > 100 µM | [5] > 100 µM | [19] > 100 µM | [6] > 100 µM | [7] 52.1 µM | [8] > 100 µM | [9] > 100 µM | [10] > 100 µM | [11] > 100 µM | [12] > 100 µM | [13] > 100 µM | [14] 63.5 µM | [15] > 100 µM | [16] > 100 µM

CCOC(CNc1nn2c(C)nnc2s1)OCC
inactive: [1] > 100 µM | [2] > 100 µM | [3] > 100 µM | [4] > 100 µM | [5] > 100 µM | [19] > 100 µM | [6] > 100 µM | [7] > 100 µM | [8] > 100 µM | [9] > 100 µM | [10] > 100 µM | [11] > 100 µM | [12] > 100 µM | [13] > 100 µM | [14] > 100 µM | [15] > 100 µM | [16] > 100 µM | [17] > 100 µM

C[C@]12C(=O)C=CCC1=CC[C@@H]1[C@@H]2[C@H]2CC3(O)C(=O)O[C@@]4(C)[C@H]5C[C@@]6(C)[C@@H]7[C@@]2(O)[C@]1(OC[C@H]6C(=O)O5)O[C@]734 (stereo not given in full)
inactive: [1] 54.6 µM | [2] 74.8 µM | [3] 28.4 µM | [4] 17.5 µM | [5] > 100 µM | [19] 20.8 µM | [6] 37.1 µM | [7] 68.4 µM | [8] 35.2 µM | [9] 93.8 µM | [10] 39.6 µM | [11] 31.8 µM | [12] 62.4 µM | [13] 14.3 µM | [16] 34.5 µM | [17] 43.7 µM

O=C(CC(C(=O)c1ccsc1)c1ccsc1)c1ccsc1 (stereo not given)
inactive: [1] > 100 µM | [18] 25.5 µM | [2] > 100 µM | [3] 82.8 µM | [4] 35.2 µM | [5] 32.1 µM | [19] 43.1 µM | [6] > 100 µM | [8] > 100 µM | [9] > 100 µM | [10] > 100 µM | [11] 43.4 µM | [12] > 100 µM | [14] > 100 µM | [16] > 100 µM | [17] > 100 µM

COc1ccc(Oc2cccc(/C=C3/C(=O)Nc4ccccc43)c2)cc1
inactive: [1] 12.2 µM | [18] 1.77 µM | [2] 11.2 µM | [3] 7.06 µM | [4] 3.05 µM | [5] 4.91 µM | [19] 4.21 µM | [6] 11.4 µM | [7] 3.53 µM | [8] 11.1 µM | [9] 15.2 µM | [10] 3.73 µM | [11] 3.6 µM | [12] 6.1 µM | [13] 6.61 µM | [14] 14.8 µM | [15] 7.89 µM | [16] 11.8 µM

COc1ccc2c(c1)C(=O)C1CCC(=O)N1C2c1ccc2c(c1)OCO2 (stereo not given)
inactive: [1] 17 µM | [18] 14.2 µM | [2] 4.89 µM | [3] 11.3 µM | [4] 2.79 µM | [5] 22.7 µM | [19] 3.09 µM | [6] 13.6 µM | [8] 5.36 µM | [9] 30.8 µM | [10] 8.65 µM | [11] 3.67 µM | [12] 13.8 µM | [13] 5.04 µM | [14] 18.6 µM | [15] 3.64 µM | [16] 24.8 µM | [17] 12.2 µM

COC(=O)/C=C\[C@@H]1[C@H](C)N1S(=O)(=O)c1ccc(C)cc1 (stereo not given in full)
inactive: [1] > 100 µM | [18] > 100 µM | [2] > 100 µM | [3] > 100 µM | [4] > 100 µM | [5] > 100 µM | [19] > 100 µM | [6] > 100 µM | [8] > 100 µM | [9] > 100 µM | [10] > 100 µM | [11] > 100 µM | [12] > 100 µM | [13] > 100 µM | [14] > 100 µM | [15] > 100 µM | [16] > 100 µM | [17] > 100 µM

O=c1c(Cc2ccc(Cl)cc2)nnc2sc(-c3ccc([N+](=O)[O-])cc3)nn12
inactive: [1] 20 µM | [2] 23.4 µM | [4] 24.4 µM | [5] 32.1 µM | [19] 23.2 µM | [6] 32.1 µM | [7] 48.1 µM | [8] 31.1 µM | [9] 25.8 µM | [11] 20 µM | [12] > 100 µM | [14] 49.1 µM | [16] 33.3 µM | [17] 21 µM
